Test results reported in ChEMBL document CHEMBL1201862, “PubChem BioAssay data set” (2004).
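Growth conditions: 96-well plates. Treatment: test compound, 48 hours, 5 concentrations. Analysis: linear interpolation between bracketing concentrations; unreached endpoints set to highest concentration. GI50 is the concentration that inhibits growth by half.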 Activity calls are given as the source filed them. Cut-off read from the data, not from the text of the source: active = GI50 up to about 1.1 µM and inactive = higher.

Assays:
Experiment in all cases: growth of human tumour cells (NCI), 48 h
[1] = test system: NCI/ADR-RES
[2] = test system: SW-620
[3] = test system: HL-60
[4] = test system: COLO 205
[5] = test system: SF-539
[6] = test system: SK-OV-3
[7] = test system: T47D
[8] = test system: MCF7
[9] = test system: SNB-75
[10] = test system: MDA-MB-435
[11] = test system: SF-268
[12] = test system: M14
[13] = test system: Malme-3M
[14] = test system: CAKI-1
[15] = test system: UO-31
[16] = test system: MOLT-4
[17] = test system: HT-29
[18] = test system: HCT-15
[19] = test system: OVCAR-5
[20] = test system: OVCAR-3

Structure (SMILES)	GI50 [1]	GI50 [2]	GI50 [3]	GI50 [4]	GI50 [5]	GI50 [6]	GI50 [7]	GI50 [8]	GI50 [9]	GI50 [10]	GI50 [11]	GI50 [12]	GI50 [13]	GI50 [14]	GI50 [15]	GI50 [16]	GI50 [17]	GI50 [18] [µM]	GI50 [19]	GI50 [20]
CN1CCC2(CC1)C(=O)N(NC(N)=O)C(=O)C2c1ccccc1 (configuration not stated)	> 100 µM (inactive)	> 100 µM (inactive)	> 100 µM (inactive)	> 100 µM (inactive)	> 100 µM (inactive)	> 100 µM (inactive)	> 100 µM (inactive)	> 10 µM (inactive)	> 100 µM (inactive)	> 100 µM (inactive)	> 100 µM (inactive)	> 100 µM (inactive)	> 100 µM (inactive)	> 100 µM (inactive)	> 100 µM (inactive)	> 100 µM (inactive)	> 100 µM (inactive)	> 100	> 100 µM (inactive)	> 100 µM (inactive)
S=C1CC(c2ccccc2)Sc2ccc(Cl)cc2N1 (configuration not stated)	86.3 µM (inactive)	–	24.4 µM (inactive)	63.7 µM (inactive)	–	56.6 µM (inactive)	59.3 µM (inactive)	36.2 µM (inactive)	30 µM (inactive)	13.4 µM (inactive)	37.9 µM (inactive)	37.4 µM (inactive)	> 100 µM (inactive)	63.7 µM (inactive)	71.3 µM (inactive)	18.7 µM (inactive)	60.7 µM (inactive)	32.7	> 100 µM (inactive)	46.5 µM (inactive)
COc1ccc(Nc2c(C#N)c3n(c4ccccc24)c2ccccc2[n+]3C)cc1OC	2.71 µM (inactive)	2.44 µM (inactive)	3.84 µM (inactive)	2.19 µM (inactive)	1.84 µM (inactive)	5.14 µM (inactive)	6.05 µM (inactive)	1.99 µM (inactive)	3.43 µM (inactive)	3.73 µM (inactive)	1.76 µM (inactive)	2.94 µM (inactive)	3.82 µM (inactive)	1.93 µM (inactive)	1.3 µM (inactive)	1.68 µM (inactive)	3.13 µM (inactive)	1.88	2.25 µM (inactive)	3.52 µM (inactive)
O=C(O)Cc1ccc(Oc2nc3ccccc3nc2-c2ccccc2)cc1	99.5 µM (inactive)	63.1 µM (inactive)	67.8 µM (inactive)	48.4 µM (inactive)	60.5 µM (inactive)	> 100 µM (inactive)	> 100 µM (inactive)	56.5 µM (inactive)	> 100 µM (inactive)	86.1 µM (inactive)	44.5 µM (inactive)	36.2 µM (inactive)	65.8 µM (inactive)	63.5 µM (inactive)	36.6 µM (inactive)	86.9 µM (inactive)	61.9 µM (inactive)	65.3	> 100 µM (inactive)	32.6 µM (inactive)
CC(C)(C)OC(=O)N1C[C@H](CC(=O)OCc2ccccc2)C[C@H]1C(=O)OCC(Cl)(Cl)Cl	2.64 µM (inactive)	11.4 µM (inactive)	2.68 µM (inactive)	3.18 µM (inactive)	14.5 µM (inactive)	> 50 µM (inactive)	1.64 µM (inactive)	3.11 µM (inactive)	10.5 µM (inactive)	5.31 µM (inactive)	8.28 µM (inactive)	6.46 µM (inactive)	6.28 µM (inactive)	3.7 µM (inactive)	3.94 µM (inactive)	1.19 µM (inactive)	4.7 µM (inactive)	3.27	20.2 µM (inactive)	3.43 µM (inactive)
Nc1ncnc2c1nnn2C1CCC(CP(=O)(O)O)C1 (configuration not stated)	> 100 µM (inactive)	> 100 µM (inactive)	> 100 µM (inactive)	> 100 µM (inactive)	> 100 µM (inactive)	> 100 µM (inactive)	> 100 µM (inactive)	> 100 µM (inactive)	> 100 µM (inactive)	> 100 µM (inactive)	> 100 µM (inactive)	> 100 µM (inactive)	> 100 µM (inactive)	> 100 µM (inactive)	> 100 µM (inactive)	> 100 µM (inactive)	> 100 µM (inactive)	> 100	> 100 µM (inactive)	> 100 µM (inactive)
CC(CCC#N)(CCC#N)C(=O)CC(O)(C(F)(F)F)C(F)(F)F	5.94 µM (inactive)	2.76 µM (inactive)	0.817 µM (active)	2.28 µM (inactive)	3.44 µM (inactive)	47 µM (inactive)	4.22 µM (inactive)	6.5 µM (inactive)	14.9 µM (inactive)	5.6 µM (inactive)	7.89 µM (inactive)	2.1 µM (inactive)	5.02 µM (inactive)	4.09 µM (inactive)	4.08 µM (inactive)	0.547 µM (active)	6.65 µM (inactive)	2.28	12.3 µM (inactive)	2.76 µM (inactive)
COc1cc2c(c(OC)c1OC)C(=O)[C@H](Br)[C@H]2NC(=O)NCCCl	> 100 µM (inactive)	> 100 µM (inactive)	75.5 µM (inactive)	50.8 µM (inactive)	> 100 µM (inactive)	59 µM (inactive)	> 100 µM (inactive)	> 100 µM (inactive)	> 100 µM (inactive)	40.5 µM (inactive)	49.9 µM (inactive)	86.1 µM (inactive)	> 100 µM (inactive)	> 100 µM (inactive)	> 100 µM (inactive)	46.7 µM (inactive)	> 100 µM (inactive)	62.5	> 100 µM (inactive)	68.2 µM (inactive)
Cc1ccc(F)c2[nH]c(-c3ccccc3)cc(=O)c12	3.82 µM (inactive)	4.67 µM (inactive)	3.39 µM (inactive)	6.81 µM (inactive)	4.34 µM (inactive)	5.43 µM (inactive)	11.3 µM (inactive)	1.18 µM (inactive)	6.18 µM (inactive)	1.18 µM (inactive)	14.5 µM (inactive)	3.37 µM (inactive)	17.9 µM (inactive)	> 100 µM (inactive)	9.23 µM (inactive)	3.94 µM (inactive)	4.57 µM (inactive)	1.64	9.1 µM (inactive)	6.28 µM (inactive)
CCCC(=O)NC(Nc1ccc(S(=O)(=O)Nc2cc(C)on2)cc1)(C(=O)OCC)C(F)(F)F (configuration not stated)	> 100 µM (inactive)	> 100 µM (inactive)	> 100 µM (inactive)	> 100 µM (inactive)	> 100 µM (inactive)	> 100 µM (inactive)	> 100 µM (inactive)	> 100 µM (inactive)	> 100 µM (inactive)	> 100 µM (inactive)	> 100 µM (inactive)	> 100 µM (inactive)	> 100 µM (inactive)	> 100 µM (inactive)	> 100 µM (inactive)	55.3 µM (inactive)	> 100 µM (inactive)	> 100	> 100 µM (inactive)	> 100 µM (inactive)
CCOC(=O)N1CCC2(CC1)CC(=O)N(Nc1ccccc1)C2=O	> 100 µM (inactive)	> 100 µM (inactive)	28.9 µM (inactive)	> 100 µM (inactive)	27.5 µM (inactive)	> 100 µM (inactive)	43.5 µM (inactive)	90.6 µM (inactive)	> 100 µM (inactive)	30.8 µM (inactive)	> 100 µM (inactive)	> 100 µM (inactive)	> 100 µM (inactive)	> 100 µM (inactive)	39.9 µM (inactive)	> 100 µM (inactive)	90.2 µM (inactive)	> 100	91.6 µM (inactive)	> 100 µM (inactive)
CC1(C)CC2(C)ON=C(c3ccccc3)N2c2ccccc2N1 (configuration not stated)	23.4 µM (inactive)	36.5 µM (inactive)	19.7 µM (inactive)	19.5 µM (inactive)	19.5 µM (inactive)	21.7 µM (inactive)	21.9 µM (inactive)	22.2 µM (inactive)	23.9 µM (inactive)	19.8 µM (inactive)	22.1 µM (inactive)	19.6 µM (inactive)	20.5 µM (inactive)	20.8 µM (inactive)	18.2 µM (inactive)	21.6 µM (inactive)	16.4 µM (inactive)	29.6	46.9 µM (inactive)	16.5 µM (inactive)
CCOC(=O)C(=CNc1ccc(F)c(F)c1)C(=O)OCC	> 100 µM (inactive)	> 100 µM (inactive)	66.1 µM (inactive)	> 100 µM (inactive)	> 100 µM (inactive)	> 100 µM (inactive)	69.7 µM (inactive)	> 100 µM (inactive)	> 100 µM (inactive)	> 100 µM (inactive)	> 100 µM (inactive)	> 100 µM (inactive)	> 100 µM (inactive)	> 100 µM (inactive)	55.3 µM (inactive)	46 µM (inactive)	94 µM (inactive)	88.3	> 100 µM (inactive)	> 100 µM (inactive)
CCCCc1ccc(-n2c(C)c(COC(=O)NC)c(COC(=O)NC)c2C)cc1	5.55 µM (inactive)	6.46 µM (inactive)	3.56 µM (inactive)	7.21 µM (inactive)	4.37 µM (inactive)	3.76 µM (inactive)	5.66 µM (inactive)	4.76 µM (inactive)	7.73 µM (inactive)	12.5 µM (inactive)	4.81 µM (inactive)	6.12 µM (inactive)	6.07 µM (inactive)	2.86 µM (inactive)	2.7 µM (inactive)	–	11.1 µM (inactive)	6.18	4.78 µM (inactive)	12.1 µM (inactive)
